Literature values as cited in patent publication US20120277147A1, “PREVENTION OF HYPOGLYCAEMIA IN DIABETES MELLITUS TYPE 2 PATIENTS” (priority 2011, published 2012).

Tested on: patients with type 2 diabetes treated with metformin and a sulfonylurea
Details: 30 week; patients unable to achieve adequate glycemic control with combined metformin-sulfonylurea therapy

## Exendin-4: native exendin peptide, SEQ ID NO: 2 (39 AS), which can lower blood glucose concentration
  Effect on HbA1c: significantly reduced HbA1c
